Laboratory results as given in ChEMBL document CHEMBL4507313, “Data for DCP probe BAY-179” (2021).
pKi: −log10 of the molar value. Values belong to the compound of their own block, whether it stands above or below them.

How the values were obtained:
[1] = molecular target: T1, GABA-A receptor; anion channel (Rattus norvegicus) (UniProt O09028+P15431+P18506+P18508+P19969+P20236+P23574+P23576+P28471+P28473+P30191+P62813+P63079+P63138+Q91ZM7+Q9ES14); conditions: Compound concentration 10.0 uM
[2] = molecular target: Muscarinic acetylcholine receptor M2 (Homo sapiens) (UniProt P08172); conditions: Compound concentration 10.0 uM
Sequence of Muscarinic acetylcholine receptor M2 (Homo sapiens) (P08172 whole entry): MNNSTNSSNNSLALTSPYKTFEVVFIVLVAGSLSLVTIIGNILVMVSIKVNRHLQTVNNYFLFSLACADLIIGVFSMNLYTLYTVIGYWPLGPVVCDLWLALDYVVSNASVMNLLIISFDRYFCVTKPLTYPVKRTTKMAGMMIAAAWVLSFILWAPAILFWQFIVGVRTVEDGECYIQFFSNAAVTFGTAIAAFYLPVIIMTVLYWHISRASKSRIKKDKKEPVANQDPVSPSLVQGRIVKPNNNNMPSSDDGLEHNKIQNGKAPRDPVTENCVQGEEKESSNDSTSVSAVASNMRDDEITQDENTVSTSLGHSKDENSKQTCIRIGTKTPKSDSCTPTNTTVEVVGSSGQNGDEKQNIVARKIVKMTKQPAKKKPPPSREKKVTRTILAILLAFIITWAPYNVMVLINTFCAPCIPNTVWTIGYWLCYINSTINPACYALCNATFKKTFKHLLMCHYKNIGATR

Rattus norvegicus = species on record: Rattus norvegicus; conditions: Compound concentration 10.0 uM
[3] = molecular target: Muscarinic acetylcholine receptor M1 (Homo sapiens) (UniProt P11229); conditions: Compound concentration 10.0 uM
Sequence of Muscarinic acetylcholine receptor M1 (Homo sapiens) (P11229 whole entry): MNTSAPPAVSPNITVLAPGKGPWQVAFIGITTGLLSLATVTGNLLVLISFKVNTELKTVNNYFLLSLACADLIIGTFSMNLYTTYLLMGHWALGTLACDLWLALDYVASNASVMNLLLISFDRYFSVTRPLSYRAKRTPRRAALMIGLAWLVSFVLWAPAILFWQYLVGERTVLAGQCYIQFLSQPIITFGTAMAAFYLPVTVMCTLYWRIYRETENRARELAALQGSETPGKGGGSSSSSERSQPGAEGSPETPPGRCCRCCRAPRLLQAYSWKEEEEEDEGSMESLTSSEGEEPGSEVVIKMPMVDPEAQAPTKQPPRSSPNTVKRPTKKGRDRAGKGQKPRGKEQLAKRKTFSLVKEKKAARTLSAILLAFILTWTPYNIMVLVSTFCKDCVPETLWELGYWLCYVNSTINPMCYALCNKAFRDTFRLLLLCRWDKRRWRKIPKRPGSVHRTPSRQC

[4] = molecular target: 5-hydroxytryptamine receptor 2C (Homo sapiens) (UniProt P28335); conditions: Compound concentration 10.0 uM
[5] = molecular target: 5-hydroxytryptamine receptor 5A (Homo sapiens) (UniProt P47898); conditions: Compound concentration 10.0 uM
[6] = molecular target: T2, Sigma non-opioid intracellular receptor 1 (Homo sapiens, UniProt Q99720); assay: GPCRScan assay: inhibition of Sigma 1; design: radioligand conc. used [nm] 4.0 – 5.0, parental cells HEKT
T2 sequence (Q99720 whole entry): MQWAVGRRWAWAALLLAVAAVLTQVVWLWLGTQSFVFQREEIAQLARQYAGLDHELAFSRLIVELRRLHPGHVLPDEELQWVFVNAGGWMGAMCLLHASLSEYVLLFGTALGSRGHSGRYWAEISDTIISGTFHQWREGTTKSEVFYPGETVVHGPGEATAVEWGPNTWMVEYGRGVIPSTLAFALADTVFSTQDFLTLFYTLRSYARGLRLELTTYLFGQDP

[7] = molecular target: T3, Sigma intracellular receptor 2 (Homo sapiens, UniProt Q5BJF2); assay: GPCRScan assay: inhibition of Sigma 2; design: radioligand conc. used [nm] 5.0, parental cells HEKT; conditions: for pKi: read-out: Ki
T3 sequence (Q5BJF2 whole entry): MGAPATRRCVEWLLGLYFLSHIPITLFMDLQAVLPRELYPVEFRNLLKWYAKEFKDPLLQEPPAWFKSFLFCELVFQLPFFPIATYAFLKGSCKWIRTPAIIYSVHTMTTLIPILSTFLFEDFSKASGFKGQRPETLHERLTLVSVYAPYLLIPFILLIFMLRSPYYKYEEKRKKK

[8] = BXF121 8 cell line Proliferation assay; assay type: functional, Homo sapiens; conditions: Cell line Patient derived
[9] = molecular target: Alpha-1B adrenergic receptor (Homo sapiens) (UniProt P35368); conditions: Compound concentration 10.0 uM
Sequence of Alpha-1B adrenergic receptor (Homo sapiens) (P35368 whole entry): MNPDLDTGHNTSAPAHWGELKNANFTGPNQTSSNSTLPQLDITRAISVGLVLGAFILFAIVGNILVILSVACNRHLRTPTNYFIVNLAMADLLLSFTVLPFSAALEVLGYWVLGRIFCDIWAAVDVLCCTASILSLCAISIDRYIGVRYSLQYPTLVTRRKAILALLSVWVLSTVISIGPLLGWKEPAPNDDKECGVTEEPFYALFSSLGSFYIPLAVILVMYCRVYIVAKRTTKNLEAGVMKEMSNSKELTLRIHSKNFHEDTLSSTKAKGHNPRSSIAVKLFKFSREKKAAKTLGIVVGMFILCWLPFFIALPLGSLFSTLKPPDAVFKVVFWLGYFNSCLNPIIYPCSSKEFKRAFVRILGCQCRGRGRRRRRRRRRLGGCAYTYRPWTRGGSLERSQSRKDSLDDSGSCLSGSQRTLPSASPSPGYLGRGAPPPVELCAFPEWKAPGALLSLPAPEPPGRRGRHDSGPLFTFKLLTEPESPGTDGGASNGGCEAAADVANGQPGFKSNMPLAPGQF

[10] = molecular target: Histamine H2 receptor (Homo sapiens) (UniProt P25021); conditions: Compound concentration 10.0 uM
Sequence of Histamine H2 receptor (Homo sapiens) (P25021 whole entry): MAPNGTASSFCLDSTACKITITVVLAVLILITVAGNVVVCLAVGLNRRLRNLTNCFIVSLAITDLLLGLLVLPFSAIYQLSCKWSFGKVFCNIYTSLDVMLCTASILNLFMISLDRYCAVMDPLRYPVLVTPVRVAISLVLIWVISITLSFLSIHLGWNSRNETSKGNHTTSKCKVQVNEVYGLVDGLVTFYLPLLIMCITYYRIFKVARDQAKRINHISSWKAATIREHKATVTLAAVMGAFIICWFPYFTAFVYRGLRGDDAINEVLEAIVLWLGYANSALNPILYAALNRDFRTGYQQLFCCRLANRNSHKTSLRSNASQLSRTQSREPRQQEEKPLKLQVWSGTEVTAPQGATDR

[11] = molecular target: 5-hydroxytryptamine receptor 2A (Homo sapiens) (UniProt P28223); conditions: Compound concentration 10.0 uM
[12] = molecular target: T2, Sigma non-opioid intracellular receptor 1; conditions: Compound concentration 10.0 uM
LOX IMVI = assay: LOX cell line Proliferation assay; assay type: functional, Homo sapiens
[13] = BXF135 2 cell line Proliferation assay; assay type: functional, Homo sapiens; conditions: Cell line Patient derived
[14] = molecular target: D(1A) dopamine receptor (Homo sapiens) (UniProt P21728); conditions: Compound concentration 10.0 uM
[15] = molecular target: Sodium-dependent serotonin transporter (Homo sapiens) (UniProt P31645); conditions: Compound concentration 10.0 uM
LS174T = assay: LS174T cell line Proliferation assay; assay type: functional, Homo sapiens
[16] = molecular target: 5-hydroxytryptamine receptor 1D (Homo sapiens) (UniProt P28221); conditions: Compound concentration 10.0 uM
[17] = molecular target: Beta-2 adrenergic receptor (Homo sapiens) (UniProt P07550); conditions: Compound concentration 10.0 uM
[18] = molecular target: 5-hydroxytryptamine receptor 1A (Homo sapiens) (UniProt P08908); conditions: Compound concentration 10.0 uM
[19] = molecular target: D(1B) dopamine receptor (Homo sapiens) (UniProt P21918); conditions: Compound concentration 10.0 uM
[20] = molecular target: D(3) dopamine receptor (Homo sapiens) (UniProt P35462); conditions: Compound concentration 10.0 uM
[21] = molecular target: Alpha-2C adrenergic receptor (Homo sapiens, UniProt P18825); assay: GPCRScan assay: inhibition of Alpha2C; design: radioligand conc. used [nm] 0.5 – 1.0, parental cells stable MDCK
[22] = molecular target: 5-hydroxytryptamine receptor 7 (Homo sapiens) (UniProt P34969); conditions: Compound concentration 10.0 uM
[23] = molecular target: 5-hydroxytryptamine receptor 1B (Homo sapiens) (UniProt P28222); conditions: Compound concentration 10.0 uM
Sequence of 5-hydroxytryptamine receptor 1B (Homo sapiens) (P28222 whole entry): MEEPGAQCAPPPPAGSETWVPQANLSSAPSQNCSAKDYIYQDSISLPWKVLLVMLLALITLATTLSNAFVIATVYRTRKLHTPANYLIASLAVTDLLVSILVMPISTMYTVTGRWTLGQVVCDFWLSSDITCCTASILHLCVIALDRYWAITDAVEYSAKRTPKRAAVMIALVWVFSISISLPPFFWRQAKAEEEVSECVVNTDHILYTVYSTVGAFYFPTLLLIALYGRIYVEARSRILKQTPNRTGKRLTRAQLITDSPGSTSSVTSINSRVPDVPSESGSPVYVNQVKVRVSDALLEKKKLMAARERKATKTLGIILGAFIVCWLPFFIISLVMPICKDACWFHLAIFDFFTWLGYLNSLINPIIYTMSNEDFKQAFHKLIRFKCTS

[24] = molecular target: 5-hydroxytryptamine receptor 3A (Homo sapiens) (UniProt P46098); conditions: Compound concentration 10.0 uM
[25] = molecular target: 5-hydroxytryptamine receptor 3A (Homo sapiens, UniProt P46098); assay: GPCRScan assay: inhibition of 5-HT3; design: radioligand conc. used [nm] 1.0 – 2.0, parental cells HEKT
MKN-1 = assay: MKN1 cell line Proliferation assay; assay type: functional, Homo sapiens
[26] = molecular target: T4, 5-hydroxytryptamine receptor 2B (Homo sapiens, UniProt P41595); conditions: Compound concentration 10.0 uM
T4 sequence (P41595 whole entry): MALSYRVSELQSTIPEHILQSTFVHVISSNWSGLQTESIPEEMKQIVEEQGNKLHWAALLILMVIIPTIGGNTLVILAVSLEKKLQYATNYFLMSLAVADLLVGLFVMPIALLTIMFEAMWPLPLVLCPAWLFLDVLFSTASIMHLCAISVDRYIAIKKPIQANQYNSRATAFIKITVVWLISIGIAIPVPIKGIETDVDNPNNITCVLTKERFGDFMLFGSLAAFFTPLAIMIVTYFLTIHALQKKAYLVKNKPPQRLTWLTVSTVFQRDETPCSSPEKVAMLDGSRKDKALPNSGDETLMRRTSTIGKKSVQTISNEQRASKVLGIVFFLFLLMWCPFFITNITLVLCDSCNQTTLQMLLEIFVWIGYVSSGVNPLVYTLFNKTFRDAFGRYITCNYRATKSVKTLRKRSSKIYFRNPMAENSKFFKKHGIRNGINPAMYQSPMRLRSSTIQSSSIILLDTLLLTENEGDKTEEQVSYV

BG-1 cell line = assay: BG1 cell line Proliferation assay; assay type: functional, Homo sapiens
Caco-2 = assay: Caco-2 cell line Proliferation assay; assay type: functional, Homo sapiens
[27] = GXF25 1 cell line Proliferation assay; assay type: functional, Homo sapiens; conditions: Cell line Patient derived
[28] = molecular target: D(2) dopamine receptor (Homo sapiens) (UniProt P14416); conditions: Compound concentration 10.0 uM
[29] = molecular target: Muscarinic acetylcholine receptor M3 (Homo sapiens) (UniProt P20309); conditions: Compound concentration 10.0 uM
[30] = molecular target: T5, 5-hydroxytryptamine receptor 6 (Homo sapiens, UniProt P50406); assay: GPCRScan assay: inhibition of 5-HT6; design: radioligand conc. used [nm] 2.0 – 4.0, parental cells stable HEK
T5 sequence (P50406 whole entry): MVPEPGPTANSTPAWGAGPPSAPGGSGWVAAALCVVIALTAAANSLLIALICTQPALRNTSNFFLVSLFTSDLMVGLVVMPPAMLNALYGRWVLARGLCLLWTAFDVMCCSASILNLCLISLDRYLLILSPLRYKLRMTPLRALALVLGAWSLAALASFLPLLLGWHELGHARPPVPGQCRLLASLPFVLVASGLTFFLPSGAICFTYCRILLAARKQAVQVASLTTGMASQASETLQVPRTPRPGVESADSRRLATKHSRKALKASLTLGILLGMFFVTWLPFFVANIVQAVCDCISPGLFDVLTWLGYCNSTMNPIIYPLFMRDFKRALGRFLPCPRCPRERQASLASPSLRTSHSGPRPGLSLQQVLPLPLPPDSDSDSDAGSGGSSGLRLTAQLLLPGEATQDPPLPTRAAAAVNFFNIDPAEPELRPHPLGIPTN

[31] = molecular target: Alpha-1D adrenergic receptor (Homo sapiens) (UniProt P25100); conditions: Compound concentration 10.0 uM
[32] = molecular target: Histamine H1 receptor (Homo sapiens) (UniProt P35367); conditions: Compound concentration 10.0 uM
Sequence of Histamine H1 receptor (Homo sapiens) (P35367 whole entry): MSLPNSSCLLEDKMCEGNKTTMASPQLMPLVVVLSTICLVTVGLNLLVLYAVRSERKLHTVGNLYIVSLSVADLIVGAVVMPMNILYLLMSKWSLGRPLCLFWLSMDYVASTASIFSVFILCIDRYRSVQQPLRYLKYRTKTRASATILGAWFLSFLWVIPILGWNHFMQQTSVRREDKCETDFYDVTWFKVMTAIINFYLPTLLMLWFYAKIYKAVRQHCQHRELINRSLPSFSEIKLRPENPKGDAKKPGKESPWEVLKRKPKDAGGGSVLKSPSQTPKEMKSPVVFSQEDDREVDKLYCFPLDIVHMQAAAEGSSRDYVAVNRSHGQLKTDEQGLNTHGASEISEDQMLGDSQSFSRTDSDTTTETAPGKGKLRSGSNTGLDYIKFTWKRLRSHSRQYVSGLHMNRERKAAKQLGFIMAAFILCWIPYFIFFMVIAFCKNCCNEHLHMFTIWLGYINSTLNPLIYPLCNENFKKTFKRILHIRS

[33] = molecular target: Beta-1 adrenergic receptor (Homo sapiens) (UniProt P08588); conditions: Compound concentration 10.0 uM
RKO = assay: RKO cell line Proliferation assay; assay type: functional, Homo sapiens
[34] = molecular target: Alpha-2C adrenergic receptor (Homo sapiens) (UniProt P18825); conditions: Compound concentration 10.0 uM
[35] = molecular target: Mu-type opioid receptor (Homo sapiens) (UniProt P35372); conditions: Compound concentration 10.0 uM
[36] = molecular target: Beta-3 adrenergic receptor (Homo sapiens) (UniProt P13945); conditions: Compound concentration 10.0 uM
[37] = molecular target: T5, 5-hydroxytryptamine receptor 6; conditions: Compound concentration 10.0 uM
[38] = molecular target: Histamine H3 receptor (Homo sapiens) (UniProt Q9Y5N1); conditions: Compound concentration 10.0 uM
Sequence of Histamine H3 receptor (Homo sapiens) (Q9Y5N1 whole entry): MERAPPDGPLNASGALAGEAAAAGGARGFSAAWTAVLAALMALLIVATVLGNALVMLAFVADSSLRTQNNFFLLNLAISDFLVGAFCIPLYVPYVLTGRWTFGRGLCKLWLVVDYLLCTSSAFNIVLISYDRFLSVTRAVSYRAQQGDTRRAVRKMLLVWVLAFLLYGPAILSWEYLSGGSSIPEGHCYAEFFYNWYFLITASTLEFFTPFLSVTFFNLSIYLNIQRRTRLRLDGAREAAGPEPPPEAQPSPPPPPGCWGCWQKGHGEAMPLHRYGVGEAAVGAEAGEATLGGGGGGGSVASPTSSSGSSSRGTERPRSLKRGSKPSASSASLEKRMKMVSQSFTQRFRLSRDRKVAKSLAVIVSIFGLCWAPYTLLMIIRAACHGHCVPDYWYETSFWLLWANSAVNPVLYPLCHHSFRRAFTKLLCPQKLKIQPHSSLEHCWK

[39] = molecular target: Muscarinic acetylcholine receptor M2 (Homo sapiens, UniProt P08172); assay: GPCRScan assay: inhibition of M2; design: radioligand conc. used [nm] 0.2 – 1.0, parental cells stable CHO
[40] = molecular target: T3, Sigma intracellular receptor 2; conditions: Compound concentration 10.0 uM
[41] = molecular target: Muscarinic acetylcholine receptor M4 (Homo sapiens) (UniProt P08173); conditions: Compound concentration 10.0 uM
[42] = LXFA62 9 cell line Proliferation assay; assay type: functional, Homo sapiens, LXF 629L; conditions: Cell line Patient derived
[43] = molecular target: Alpha-1A adrenergic receptor (Homo sapiens) (UniProt P35348); conditions: Compound concentration 10.0 uM
[44] = molecular target: Kappa-type opioid receptor (Homo sapiens) (UniProt P41145); conditions: Compound concentration 10.0 uM
[45] = molecular target: Delta-type opioid receptor (Homo sapiens) (UniProt P41143); conditions: Compound concentration 10.0 uM
[46] = molecular target: Histamine H4 receptor (Homo sapiens) (UniProt Q9H3N8); conditions: Compound concentration 10.0 uM
[47] = molecular target: T1, GABA-A receptor; anion channel (Rattus norvegicus); conditions: Compound concentration 10.0 uM; remark: listed apart in the source
[48] = molecular target: Muscarinic acetylcholine receptor M5 (Homo sapiens) (UniProt P08912); conditions: Compound concentration 10.0 uM
SK-MEL-28 = assay: SK- MEL-28 cell line Proliferation assay; assay type: functional, Homo sapiens
[49] = molecular target: D(4) dopamine receptor (Homo sapiens) (UniProt P21917); conditions: Compound concentration 10.0 uM
[50] = molecular target: T4, 5-hydroxytryptamine receptor 2B; assay: GPCRScan assay: inhibition of 5-HT2B; design: radioligand conc. used [nm] 1.0 – 2.0, parental cells stable HEK; conditions: for pKi: read-out: Ki; for Ki: read-out: pKi (converted)
[51] = molecular target: Alpha-2B adrenergic receptor (Homo sapiens) (UniProt P18089); conditions: Compound concentration 10.0 uM
[52] = molecular target: 5-hydroxytryptamine receptor 1E (Homo sapiens) (UniProt P28566); conditions: Compound concentration 10.0 uM
[53] = molecular target: Alpha-2A adrenergic receptor (Homo sapiens) (UniProt P08913); conditions: Compound concentration 10.0 uM
Sequence of Alpha-2A adrenergic receptor (Homo sapiens) (P08913 whole entry): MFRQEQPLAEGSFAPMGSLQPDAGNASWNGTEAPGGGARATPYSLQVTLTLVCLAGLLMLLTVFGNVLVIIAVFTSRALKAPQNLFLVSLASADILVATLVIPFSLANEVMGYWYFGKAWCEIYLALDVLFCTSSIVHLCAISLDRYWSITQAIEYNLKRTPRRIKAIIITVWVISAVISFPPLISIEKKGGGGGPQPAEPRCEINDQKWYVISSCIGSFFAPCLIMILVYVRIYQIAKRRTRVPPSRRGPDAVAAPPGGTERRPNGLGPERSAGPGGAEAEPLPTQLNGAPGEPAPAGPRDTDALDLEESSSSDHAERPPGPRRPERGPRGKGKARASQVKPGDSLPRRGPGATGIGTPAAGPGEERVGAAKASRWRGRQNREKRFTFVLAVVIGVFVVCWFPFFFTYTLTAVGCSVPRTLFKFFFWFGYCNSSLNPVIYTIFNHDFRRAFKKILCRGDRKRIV

[54] = molecular target: Sodium-dependent noradrenaline transporter (Homo sapiens) (UniProt P23975); conditions: Compound concentration 10.0 uM
[55] = molecular target: Sodium-dependent dopamine transporter (Homo sapiens) (UniProt Q01959); conditions: Compound concentration 10.0 uM

inhibition [1]: 7.9%
inhibition [2]: 54.2%
inhibition (Rattus norvegicus): 20.2%
inhibition [3]: 1.7%
inhibition [4]: 20.2%
inhibition [5]: 19.9%
pKi [6]: 5.93
pKi [7]: 5.95
Ki ([7]; read-out: pKi (converted)): 1100 nM
inhibition [9]: 35.7%
inhibition [10]: 14.8%
inhibition [11]: 5.87%
inhibition [12]: 55.4%
inhibition [14]: -2.56%
inhibition [15]: 40.3%
inhibition [16]: 16.9%
inhibition [17]: 25.4%
inhibition [18]: 16.4%
inhibition [19]: 5.5%
inhibition [20]: 28.6%
pKi [21]: 5.46
inhibition [22]: 40.9%
inhibition [23]: 16%
inhibition [24]: 72.1%
pKi ([25]; read-out: Ki): 5.26
Ki ([25]; read-out: pKi (converted)): 5370 nM
Cell Proliferation EC50 (MKN-1): 34 nM
inhibition [26]: 74.5%
Cell Proliferation EC50 (Caco-2): 129 nM
inhibition [28]: 5.5%
inhibition [29]: -0.2%
pKi [30]: 5.28
inhibition [31]: 9.84%
inhibition [32]: 37.4%
inhibition [33]: 20.9%
inhibition [34]: 53.4%
inhibition [35]: 22.4%
inhibition [36]: 11.7%
inhibition [37]: 72.4%
inhibition [38]: -4.94%
pKi ([39]; read-out: Ki): 5.26
Ki ([39]; read-out: pKi (converted)): 4420 nM
inhibition [40]: 78.1%
inhibition [41]: -4.61%
inhibition [43]: 15.5%
inhibition [44]: 21.6%
inhibition [45]: 22%
inhibition [46]: 2.33%
inhibition [47]: 48.3%
inhibition [48]: -7.72%
Cell Proliferation EC50 (SK-MEL-28): 75 nM
inhibition [49]: 16.5%
pKi [50]: 6.25
Ki [50]: 550 nM
inhibition [51]: 28.7%
inhibition [52]: 30.9%
inhibition [53]: 32.1%
Structure (SMILES): c1ccc2oc(-c3csc(C4CCN(Cc5nc6ncccc6[nH]5)CC4)n3)cc2c1
Cell Proliferation EC50 [8]: 65 nM
Cell Proliferation EC70 [8]: 104 nM
Cell Proliferation EC50 (LOX IMVI): 126 nM
Cell Proliferation EC70 (LOX IMVI): 335 nM
Cell Proliferation EC50 [13]: 23 nM
Cell Proliferation EC70 [13]: 48 nM
Cell Proliferation EC50 (LS174T): 43 nM
Cell Proliferation EC70 (LS174T): 109 nM
Cell Proliferation EC70 (MKN-1): 85 nM
Cell Proliferation EC50 (BG-1 cell line): 142 nM
Cell Proliferation EC70 (BG-1 cell line): 207 nM
Cell Proliferation EC70 (Caco-2): 209 nM
Cell Proliferation EC50 [27]: 81 nM
Cell Proliferation EC70 [27]: 147 nM
Cell Proliferation EC50 (RKO): 153 nM
Cell Proliferation EC70 (RKO): 251 nM
Cell Proliferation EC50 [42]: 66 nM
Cell Proliferation EC70 [42]: 195 nM
Cell Proliferation EC70 (SK-MEL-28): 215 nM

inhibition [2]: 10.1%
inhibition (Rattus norvegicus): 13.7%
inhibition [3]: 43.4%
inhibition [4]: 8.59%
inhibition [5]: 16.2%
pKi [6]: 5.89
pKi [7]: 6.82
inhibition [9]: 7.64%
inhibition [10]: 1.91%
inhibition [11]: -4.2%
inhibition [54]: -3.53%
inhibition [12]: 80%
inhibition [55]: -1.09%
inhibition [15]: 7.08%
inhibition [16]: -0.96%
inhibition [17]: 23%
inhibition [18]: 10.2%
inhibition [19]: 5.35%
inhibition [20]: 47.6%
inhibition [22]: 10.1%
inhibition [23]: 4.71%
inhibition [24]: 45.1%
inhibition [26]: 72%
inhibition [28]: 44.6%
inhibition [29]: 16.1%
inhibition [31]: 14.4%
inhibition [32]: 0.44%
inhibition [33]: 19.9%
inhibition [34]: 19.9%
inhibition [35]: 9.54%
inhibition [36]: 19.5%
inhibition [37]: 31.4%
inhibition [38]: -7.57%
inhibition [40]: 98%
inhibition [41]: 14.7%
inhibition [43]: 6.33%
inhibition [44]: 18.1%
inhibition [45]: 3.76%
inhibition [46]: -9.17%
inhibition [47]: -6.05%
inhibition [48]: 13.5%
inhibition [49]: 44%
pKi [50]: 5.80
Ki [50]: 1510 nM
inhibition [51]: 22%
inhibition [53]: 27.1%
Structure (SMILES): Cn1c(-c2csc(C3CCN(CC4=NC5N=CC=CC5N4)CC3)n2)nc2ccccc21 (configuration not stated) [BAY-070]
